{"source": "patent US5705649A", "about": "“Protein staining compositions and methods” (Promega Corporation, priority 1995, dated 1998)", "key": {"[1]": {"tested_on": "Promega Mid-Range Molecular Weight Markers", "test": "Enhancement of staining of proteins in SDS-PAGE gels in 5% acetic acid", "settings": "5% acetic acid", "procedure": "The gels described above were placed in 5% acetic acid following the termination of the electrophoretic separation. Within one to two minutes the gel developed a light green background but the protein bands dramatically darkened to a green color. […] Again, the color of the background darkened to a greater degree when greater concentrations of dye were used.\nThe gels above (from Example 7) were placed in 5% acetic acid following termination of the electrophoretic separation. Within 1-2 minutes, all the gels turned light green and the color of the stained bands intensified such that all proteins were visible--even in the lane containing 0.25 μg protein/band.\nThe gels above (Example 9) were placed in 5% acetic acid following termination of the electrophoretic separation. Within 1-2 minutes, all the gels turned light green and the color of the stained bands intensified such that all proteins were visible--even in the lanes containing 0.25 μg protein/band."}, "[2]": {"tested_on": "Promega Mid-Range Molecular Weight Markers", "test": "Detection of proteins during SDS-PAGE electrophoresis (dye in cathode buffer)", "settings": "10% SDS-PAGE, dye in cathode buffer, white plastic card behind gel", "from_the_text": "Solutions for the formation and electrophoresis of proteins were made according to the instructions given in Experiments in Gene Fusions, Silhavy, Berman, Enquist, Cold Spring Harbor Laboratory Press, Cold Spring Harbor, N.Y. with the following changes:\na) The SDS concentration in the upper and lower gel buffer components were reduced to result in a 0.05% final SDS concentration in the gel. Thus, the composition of 4× upper gel buffer was 0.5M Tris-HCl, pH 6.8, 0.2 % (w/v) sodium dodecylsulfate (SDS) and the composition of 4× lower gel buffer was 1.5M Tris-HCl, pHS.8, 0.2 % (w/v) SDS.\nb) The SDS concentration in the electrophoretic (electrode) buffer was reduced to 0.04% final concentration. Thus, 4× electrode (anode or cathode) buffer was made by dissolving 60 g Tris base, 288 g glycine, and 8 g SDS dissolved in water and then diluting with water to 5 liters. Another name sometimes used for \"electrode\" buffer is \"running\" buffer.\nc) The SDS concentration in the 2× sample buffer was reduced to 1% final SDS concentration. Thus, 2× sample buffer was made by mixing 0.5 ml of betamercaptoethanol, 0.25 ml of 0.1% (w/v) bromophenol blue, 1 ml of 10 % (w/v) SDS, 3 ml of water, and 5.3 ml of 2× glycerol buffer. 2× glycerol buffer is made by mixing 12.5 ml of 4× upper gel buffer and 20 ml of glycerol and diluting the resulting solution to 60 ml with water. Another name sometimes used for \"sample\" buffer is \"loading\" buffer.\nd) Electrophoresis was performed using a BIO-RAD miniprotein II electrophoresis apparatus and gels were poured such that i cm of space was present between the bottom of the loading wells and the separating gel.\nIn other electrophoresis experiments reported in this application, the buffers used were as described above in this example. In some cases, as in this example, where preparation of a solution of dye in 150 ml of cathode (or electrode) buffer is specified, an amount of stock solution of a dye was first added to 150 ml of cathode buffer and then 125 ml of the resulting solution was used to fill the cathode buffer chamber (which holds 125 ml) in the electrophoresis apparatus. In other cases, where addition of stock solution of dye to the cathode buffer is specified without reference to the volume of cathode buffer or with reference to such volume being \"125 ml,\" the stock solution was added directly to 125 ml of cathode buffer already in the cathode buffer chamber.\nThe samples used were prepared with Promega Mid-Range Molecular Weight Markers solution (Promega Corp., Madison, Wis., USA, Catalog No. V5231) (referred to hereinafter as \"Promega Mid-Range [Molecular Weight] Markers or Standards\") diluted into Sample Buffer. […]"}, "[3]": {"test": "Spectral analyses of Coomassie Blue R and Promega Green 1, 2, 3", "format": "physicochemical", "settings": "diluted 1:500 in 1:1 methanol:water", "procedure": "The three solutions of Promega Green 1, 2, and 3, from examples 1, 2 and 3 respectively, were diluted approximately 500 fold into a 1:1 solution of methanol:water. The spectra of the resulting solutions and of a 12 μg/ml solution of Coomassie Blue R (in 1:1 methanol:water) were recorded from 700 to 340 nm versus 1:1 methanol:water. […] All of the derivatives gave essentially identical spectra; however, the maximal absorbance of the diluted Promega Green i was about twice that seen for the other derivatives. The derivatives had two peak absorptions in the region of the spectrum scanned, a major peak at around 630 nm and a second peak at around 440 nm. The following absorbances were recorded at the peaks near 630 nm for the three Promega Green dye solutions (diluted 1:500 in 1:1 methanol:water): […]"}, "[4]": {"tested_on": "Promega Mid Range Molecular Weight Standards", "test": "Detection of denatured protein with dodecylamino and octylamino derivatives of fluorescein isothiocyanate", "procedure": "A fifteen well, 12% gel was made as described in example 5 and was loaded with diluted Promega Mid Range Molecular Weight Standards to produce lanes containing samples having 200, 100, 80, 60, 40, 20 and 10 ng of protein per band. The gel was run as described in example 5 except that Promega Green 1 was not added to the cathode buffer. After electrophoresis, the gel was cut between lanes to produce gel segments containing fractionated protein samples at each of the concentrations listed above and these were placed in 30% methanol for 25-30 min at room temperature. The stock stain solutions of Example 33 were then diluted into distilled water at a concentration of 0.5% (v/v), and 50 ml of these solutions were used to stain the gels. After 1 hr incubation, the gels were visualized and photographed using a transilluminator. […] The gels were then placed in 5% methanol and allowed to destain overnight.\nGels were made and loaded as described in Example 34. The gels were incubated in 30% methanol for 15 min to fix the protein and then were incubated in 50 ml of a solution of the stains of Example 38 made by dilution of the stock stain solutions described in Example 38 to a concentration of 0.5% (v/v) in distilled water. After incubation in the staining solution for 1 hr, the gels were placed in 5% methanol and were visualized and photographed after 30 min by placement of the gel segment on a transilluminator. Photography of the segments was performed as described in Example 27. At this point, protein bands were visualized in the gel stained with the dodecylamino derivative at a concentration as low as 80 ng of protein per band.\nThe gel segments were then returned to the destaining solutions and allowed to incubate overnight. The segment of the gel stained with the octylamino derivative was transferred to a solution of 30% methanol following the overnight incubation and was revisualized and rephotographed after 1 hr of incubation in this methanol solution. At this point, protein was detected at fluorescently labeled bands to a concentration as low as 40 ng of protein per band."}, "[5]": {"settings": "0.5% (v/v) stain 1 hr, 5% methanol 30 min"}}}
{"smiles": "CCCCCCCCCCCC(=O)N(c1ccc(OCC)cc1)c1ccc(C(=C2C=CC(=[N+](CC)Cc3cccc(S(=O)(=O)[O-])c3)C=C2)c2ccc(N(CC)Cc3cccc(S(=O)(=O)O)c3)cc2)cc1", "note": "[Promega Green 3]", "values": [{"measurement": "lowest protein amount per band visible after enhancement", "setting": "[1]; 1-2 minutes", "result": 0.25, "unit": "µg"}, {"measurement": "staining after overnight incubation", "setting": "[1]; overnight", "result": "darker background color"}, {"measurement": "lowest protein amount per band visible while the gel was running", "setting": "[2]", "result": 1.0, "unit": "µg"}, {"measurement": "Absorbance at the peak near 630 nm", "setting": "[3]", "result": 0.83}]}
{"smiles": "CCCCCCCCCCCCNC(=S)Nc1ccc(-c2c3ccc(=O)cc-3oc3cc(O)ccc23)c(C(=O)O)c1", "note": "[dodecylamino derivative]", "values": [{"measurement": "lowest protein per band visualized", "setting": "[4]; [5]", "result": 80, "unit": "ng"}]}
{"smiles": "CCCCCCCCNC(=S)Nc1ccc(-c2c3ccc(=O)cc-3oc3cc(O)ccc23)c(C(=O)O)c1", "note": "[octylamino derivative]", "values": [{"measurement": "background / visualization of bands", "setting": "[4]; [5]", "result": "high background fluorescence which prevented visualization of the protein bands"}, {"measurement": "lowest protein per band detected", "setting": "[4]; after overnight destaining, then 30% methanol 1 hr", "result": 40, "unit": "ng"}]}
